Tests used:
[1] = test system: A549 cells; conditions: cited from earlier work
[2] = test system: Skov-3 cells (human ovarian cancer); test: FACS analysis of cell cycle stage by DNA content (mitotic arrest); assay type: cell-based; conditions: treated 24 hours, paclitaxel at 10 nM
Description: FACS analysis to determine cell cycle stage by measuring DNA content was performed as follows. Skov-3 cells (human ovarian cancer) were split 1:10 for plating in 10 cm dishes and grown to subconfluence with RPMI 1640 medium containing 5% fetal bovine serum (FBS). The cells were then treated with either 10 nM paclitaxel, the test compound or 0.25% DMSO (vehicle for compounds) for 24 hours. Cells were then rinsed off the plates with PBS containing 5 mM EDTA, pelleted, washed once in PBS containing 1% FCS, and then fixed overnight in 85% ethanol at 4° C. Before analysis, the cells were pelleted, washed once, and stained in a solution of 10 μg propidium iodide and 250 μg of ribonuclease (RNAse) A per milliliter at 37° C. for half an hour. Flow cytometry analysis was performed on a Becton-Dickinson FACScan, and data from 10,000 cells per sample was analyzed with Modfit software.

| Structure (SMILES) | GI50 [1] [nM] | shift of cell population between cell cycle stages (DNA content) [2] |
| --- | --- | --- |
| COc1cccc2c1C(=O)c1c(O)c3c(c(O)c1C2=O)C[C@@](O)(C(=O)CO)C[C@@H]3O[C@H]1C[C@H](N)[C@H](O)[C@H](C)O1 [doxorubicin] | 63 | – |
| CC(=O)O[C@H]1C(=O)[C@@]2(C)[C@H]([C@H](OC(=O)c3ccccc3)[C@]3(O)C[C@H](OC(=O)[C@H](O)[C@@H](NC(=O)c4ccccc4)c4ccccc4)C(C)=C1C3(C)C)[C@]1(OC(C)=O)CO[C@@H]1C[C@@H]2O [paclitaxel] | 4 | caused a shift in the population of cells from a G0/G1 cell cycle stage (2 n DNA content) to a G2/M cell cycle stage (4 n DNA content) |
| NC(=O)NO [hydroxyurea] | 500000 | – |
| O=c1[nH]cc(F)c(=O)[nH]1 [5-fluorouracil] | 1000 | – |
